According to US8754226B2, “Piperidinyl-substituted lactams as GPR119 modulators” (Array BioPharma Inc., priority 2010, dated 2014):

System: modified version of the GPR119 receptor (94% identity to human receptor)
Assay: cAMP production assay (LANCE cAMP kit, TR-FRET) in HEK-293 cells
Format: cell-based
Details: for cAMP production in HEK-293 cells: HEK-293 cells stably expressing modified GPR119, test compounds 0.2 nM to 10 μM, one-hour incubation at ambient temperature; for Fold over baseline: increase in cAMP relative to basal levels, agonist activity if 1.5-fold or greater
Summary of the method: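 Doxycycline-induced (1 μg/mL, overnight) HEK-293 cells expressing modified GPR119 were thawed, 2000 cells/well, and exposed to compounds (0.2 nM-10 μM final, 0.5% DMSO) for 1 h at ambient temperature in HBSS/HEPES/BSA. cAMP was measured by LANCE TR-FRET against a standard curve. Agonism was defined as ≥1.5-fold over basal.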

Compound | cAMP production in HEK-293 cells | Fold over baseline
CS(=O)(=O)c1cc(F)c(N[C@H]2CCCN(C3CCN(c4ccc(C(F)(F)F)cn4)CC3)C2=O)cc1F [Example 54, (S)-3-(2,5-difluoro-4-(methylsulfonyl)phen-ylamino)-1′-(5-(trifluoromethyl)pyridin-2-yl)-[1,4′-bipiperidin]-2-one] | 7.3 nmol | 2.3
CS(=O)(=O)c1cc(F)c(N[C@H]2CCN(C3CCN(c4ncc(Cl)cc4Cl)CC3)C2=O)cc1F [Example 113, (S)-1-(1-(3,5-dichloropyridin-2-yl)piperidin-4-yl)-3-(2,5-difluoro-4-(methylsulfonyl)phenyl-amino)pyrrolidin-2-one] | 29.1 nmol | 2.1
Cc1cc(N[C@H]2CCN(C3CCN(c4cnc(Cl)cn4)CC3)C2=O)c(F)cc1S(C)(=O)=O [Example 1, (S)-1-(1-(5-chloropyrazin-2-yl)piperidin-4-yl)-3-(2-fluoro-5-methyl-4-(methylsulfonyl)phenylamino)pyrrolidin-2-one] | 23.5 nmol | 3.9
Cc1cc(S(C)(=O)=O)ncc1N[C@H]1CCN(C2CCN(c3ncc(Cl)cc3F)CC2)C1=O [Example 121, (S)-1-(1-(5-chloro-3-fluoropyridin-2-yl)piperidin-4-yl)-3-(4-methyl-6-(methylsulfonyl)pyridin-3-ylamino) pyrrolidin-2-one] | 10.6 nmol | 2.5
CS(=O)(=O)c1ccc(N[C@H]2CCN(C3CCN(c4cnc(C(F)(F)F)nc4)CC3)C2=O)c(F)c1 [Example 158, (S)-3-(2-fluoro-4-(methylsulfonyl)phenylamino)-1-(1-(2-(trifluoromethyl)pyrimidin-5-yl)piperidin-4-yl)pyrrolidin-2-one] | 12.5 nmol | 3.2
CSc1cnc(N2CCC(N3CC[C@H](Nc4ccc(S(C)(=O)=O)cc4F)C3=O)CC2)nc1 [Example 30, (S)-3-(2-fluoro-4-(methylsulfonyl)phenylamino)-1-(1-(5-(methylthio)pyrimidin-2-yl)piperidin-4-yl)pyrrolidin-2-one] | 6.6 nmol | 2.0
CS(=O)(=O)c1ccc(N[C@H]2CCN(C3CCN(c4ncc(Cl)cc4F)CC3)C2=O)cn1 [Example 130, (S)-1-(1-(5-chloro-3-fluoropyridin-2-yl)piperidin-4-yl)-3-(6-(methylsulfonyl)pyridin-3-ylamino)pyrrolidin-2-one] | 26.8 nmol | 3.5
CCc1cnc(N2CCC(N3CCC(Oc4cc(F)c(S(C)(=O)=O)cc4F)C3=O)CC2)nc1 (stereo not drawn) [Example 87, 3-(2,5-difluoro-4-(methylsulfonyl)phenoxy)-1-(1-(5-ethylpyrimidin-2-yl)piperidin-4-yl)pyrrolidin-2-one trifluoroactetate] | 5.5 nmol | 1.8
O=C1[C@@H](Nc2ncc(C(F)(F)F)cc2Cl)CCCN1C1CCN(c2cnc(Cl)cn2)CC1 [Example 75, (S)-3-(3-chloro-5-(trifluoromethyl)pyridin-2-ylamino)-1′-(5-chloropyrazin-2-yl)-[1,4′-bipiperidin]-2-one] | 9.1 nmol | 2.5
O=C1[C@@H](Nc2ccc(S(=O)(=O)C3CC3)nc2)CCN1C1CCN(c2ncc(Cl)cc2F)CC1 [Example 126, (S)-1-(1-(5-chloro-3-fluoropyridin-2-yl)piperidin-4-yl)-3-(6-(cyclopropylsulfonyl)pyri-din-3-ylamino)pyrrolidin-2-one] | 10.4 nmol | 2.4
CS(=O)(=O)c1cc(F)c(N[C@H]2CCN(C3CCN(c4ncc(Cl)cn4)CC3)C2=O)cc1F [Example 6, (S)-3-(2,5-difluoro-4-(methyl-sulfonyl)phenylamino)-1-(1-(5-chloropyrimidin-2-yl)piperidin-4-yl)pyrrolidin-2-one] | 9.2 nmol | 1.8
COc1cnc(N2CCC(N3CC[C@H](Nc4ccc(S(C)(=O)=O)cc4F)C3=O)CC2)cn1 [Example 160, (S)-3-(2-fluoro-4-(methylsulfonyl)phenylamino)-1-(1-(5-methoxypyrazin-2-yl)piperidin-4-yl)pyrrolidin-2-one] | 22.3 nmol | 3.9
CS(=O)(=O)c1cc(F)c(O[C@H]2CCCN(C3CCN(c4ncc(C(F)(F)F)cc4F)CC3)C2=O)cc1F [Example 163, (S)-3-(2,5-difluoro-4-(methylsulfonyl)phenoxy)-1′-(3-fluoro-5-(trifluoromethyl)pyridin-2-yl)-[1,4′-bipiperidin]-2-one] | 18.3 nmol | 3.9
CCc1cnc(N2CCC(N3CCC[C@H](Oc4cc(F)c(S(C)(=O)=O)cc4F)C3=O)CC2)nc1 [Example 165, (S)-3-(2,5-difluoro-4-(methylsulfonyl)phenoxy)-1′-(5-ethylpyrimidin-2-yl)-[1,4′-bipiperidin]-2-one] | 16.0 nmol | 3.2
Cc1cc(S(C)(=O)=O)ncc1N[C@H]1CCN(C2CCN(c3ncc(Cl)cc3C#N)CC2)C1=O [Example 122, (S)-5-chloro-2-(4-(3-(4-methyl-6-(methylsulfonyl)pyridin-3-ylamino)-2-oxopyrrolidin-1-yl)piperidin-1-yl) icotinonitrile] | 6.5 nmol | 1.5
CS(=O)(=O)c1cc(F)c(N[C@H]2CCCCN(C3CCN(c4cnccn4)CC3)C2=O)cc1F.Cl [Example 83, (S)-3-(2,5-difluoro-4-(methylsulfonyl)phenylamino)-1-(1-(pyrazin-2-yl)piperidin-4-yl)azepan-2-one hydrochloride] | 13.0 nmol | 2.9
CCc1cnc(N2CCC(N3CC[C@H](Nc4cc(C)c(S(C)(=O)=O)cc4F)C3=O)CC2)nc1 [Example 35, (S)-1-(1-(5-ethylpyrimidin-2-yl)piperidin-4-yl)-3-(2-fluoro-5-methyl-4-(methylsulfonyl)phenylamino)pyrrolidin-2-one] | 14.5 nmol | 4.1
CS(=O)(=O)c1ccc(N[C@H]2CCCN(C3CCN(c4ncc(C(F)(F)F)cc4Cl)CC3)C2=O)c(F)c1 [Example 145, (S)-1′-(3-chloro-5-(trifluoromethyl)pyridin-2-yl)-3-(2-fluoro-4-(methylsulfonyl)phenyl-amino)-1,4′-bipiperidin-2-one] | 28.3 nmol | 2.1
CS(=O)(=O)c1cc(F)c(N[C@H]2CCN(C3CCN(c4cnc(C(F)(F)F)cn4)CC3)C2=O)cc1F [Example 11, (S)-3-(2,5-difluoro-4-(methylsulfonyl)phenylamino)-1-(1-(5-(trifluoromethyl)pyrazin-2-yl)piperidin-4-yl)pyrrolidin-2-one] | 27.1 nmol | 3.4
CCc1cnc(N2CCC(N3CCCC[C@H](Nc4cc(F)c(S(C)(=O)=O)cc4F)C3=O)CC2)nc1.Cl [Example 82, (S)-3-(2,5-difluoro-4-(methylsulfonyl)phenylamino)-1-(1-(5-ethylpyrimidin-2-yl)piperidin-4-yl)azepan-2-one hydrochloride] | 18.5 nmol | 4.0
O=C1[C@@H](Nc2ccc(S(=O)(=O)C3CC3)nc2)CCN1C1CCN(c2cnc(Cl)cn2)CC1 [Example 124, (S)-1-(1-(5-chloropyrazin-2-yl)piperidin-4-yl)-3-(6-(cyclopropylsulfonyl)pyri-din-3-ylamino)pyrrolidin-2-one] | 14.1 nmol | 3.6
CS(=O)(=O)c1cc(F)c(N[C@H]2CCCCN(C3CCN(c4cnc(Cl)cn4)CC3)C2=O)cc1F.Cl [Example 81, (S)-1-(1-(5-chloropyrazin-2-yl)piperidin-4-yl)-3-(2,5-difluoro-4-(methylsulfonyl)phenylamino)azepan-2-one hydrochloride] | 22.7 nmol | 5.0
CC(C)c1cnc(N2CCC(N3CCC(Oc4cc(F)c(S(C)(=O)=O)cc4F)C3=O)CC2)nc1 (stereo not drawn) [Example 86, 3-(2,5-difluoro-4-(methylsulfonyl)phenoxy)-1-(1-(5-isopropylpyrimidin-2-yl)piperidin-4-yl)pyrrolidin-2-one] | 5.9 nmol | 1.9
CS(=O)(=O)c1ccc(O[C@H]2CCN(C3CCN(c4ncc(C(F)(F)F)cc4Cl)CC3)C2=O)cn1 [Example 143, (S)-1-(1-(3-chloro-5-(trifluoromethyl)pyridin-2-yl)piperidin-4-yl)-3-(6-(methylsulfonyl)pyridin-3-yloxy) pyrrolidin-2-one] | 13.3 nmol | 4.3
O=C1[C@@H](Nc2ncc(C(F)(F)F)cc2Cl)CCN1C1CCN(c2cnc(Cl)cn2)CC1 [Example 22, (S)-3-(3-chloro-5-(trifluoromethyl)pyridin-2-ylamino)-1-(1-(5-chloropyrazin-2-yl)piperidin-4-yl)pyrrolidin-2-one] | 32.7 nmol | 5.6
CCc1cnc(N2CCC(N3CCC[C@H](Nc4ccc(S(C)(=O)=O)c(Cl)c4)C3=O)CC2)nc1 [Example 56, (S)-3-(3-chloro-4-(methylsulfonyl)phen-ylamino)-1′-(5-ethylpyrimidin-2-yl)-[1,4′-bipiperidin]-2-one] | 18.0 nmol | 2.4
CCc1cnc(N2CCC(N3CCC(Oc4ccc(-c5nnn(C)n5)cc4)C3=O)CC2)nc1 (stereo not drawn) [Example 68, 1-(1-(5-ethylpyrimidin-2-yl)piperidin-4-yl)-3-(4-(2-methyl-2H-tetrazol-5-yl)phenoxy)pyrrolidin-2-one] | 8.8 nmol | 1.9
